This note sets out measurements from PubChem BioAssay (NCI).

Some test systems named below: OVCAR-8 ovarian; SNB-19 CNS; SW-620 colon; NCI-H522 lung; LOX IMVI melanoma; RPMI-8226 leukemia; MDA-N; IGROV1 ovarian; RXF 393 renal; HL-60(TB) leukemia.
Holding throughout (assay): DTP human tumour cell line panel, 48 h

Molecules are shown by their SMILES.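 1) Cells in 96-well plates. 2) Compound, 48 h, 5 concentrations. 3) Linear interpolation between surrounding doses. 4) Unreached endpoint = highest concentration. The concentration for full growth arrest is given as TGI.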 A value given as a limit tells only on which side of the number the result lay.

By TGI is commonly meant the concentration at which net growth stops. A higher TGI goes with less potent growth arrest. As for `Cc1ccc2c(c1)-c1c(C#N)c(N)nc(-c3ccc(Cl)cc3)c1CCS2(=O)=O`, the concentration for total growth inhibition (TGI) was > 100 µM in the experiment on OVCAR-8 ovarian; > 100 µM in the experiment on SNB-19 CNS; > 100 µM with SW-620 colon; > 23.1 µM in the experiment with NCI-H522 lung; > 100 µM in the experiment on LOX IMVI melanoma; 8.45 µM in the experiment on RPMI-8226 leukemia. The figures for the TGI in the experiment with MDA-N and in the experiment on IGROV1 ovarian were 8.88 µM and > 100 µM, respectively.
For the molecule `COc1ccccc1CN=C1Nc2ccncc2S(=O)(=O)N1c1ccccc1`, the TGI in the experiment with OVCAR-8 ovarian, with SNB-19 CNS, in the experiment on RXF 393 renal, in the experiment on SW-620 colon, in the experiment on NCI-H522 lung and in the experiment on LOX IMVI melanoma was > 100 µM each time. Also, the TGI in the experiment on RPMI-8226 leukemia, in the experiment on IGROV1 ovarian and in the experiment with HL-60(TB) leukemia was > 100 µM throughout.
On to `CN(C)CCCNC(=O)c1cc(NC(=O)c2cc(NC(=O)CCCn3c4ccccc4c4ccccc43)cn2C)cn1C`, for which the TGI was > 66.2 µM with OVCAR-8 ovarian; 28.3 µM in the experiment with SNB-19 CNS; 37.8 µM in the experiment on RXF 393 renal; 42.8 µM in the experiment with SW-620 colon; > 90.6 µM in the experiment with NCI-H522 lung; > 50.9 µM in the experiment with LOX IMVI melanoma. Also, the figures for the TGI in the experiment with RPMI-8226 leukemia, in the experiment with IGROV1 ovarian and in the experiment with HL-60(TB) leukemia were 39.3 µM, > 75.9 µM and > 72.4 µM, respectively.
As to `CCOC(=O)C1(C#N)C(c2ccccc2)CC(O)(c2ccc(Cl)cc2)C(C(=O)c2ccc(Cl)cc2)C1c1ccccc1` (stereo not given), the total growth inhibition concentration (TGI) with OVCAR-8 ovarian was > 100 µM; with SNB-19 CNS, 90.8 µM; with RXF 393 renal, > 100 µM; in the experiment on SW-620 colon, > 100 µM; in the experiment with NCI-H522 lung, > 100 µM; with LOX IMVI melanoma, > 100 µM. Besides, the TGI in the experiment with RPMI-8226 leukemia, in the experiment on IGROV1 ovarian and in the experiment on HL-60(TB) leukemia was > 100 µM each time.
With `S=C(N/N=C\C(=N/NC(=S)N1CCCCC1)c1ccccc1)N1CCCCC1`, the TGI with SNB-19 CNS is 3.84 µM; with RXF 393 renal, 3.33 µM; in the experiment on SW-620 colon, 3.83 µM; in the experiment with NCI-H522 lung, 3.77 µM; in the experiment with LOX IMVI melanoma, > 100 µM; in the experiment on RPMI-8226 leukemia it was > 100 µM. In addition, the TGI with MDA-N is > 100 µM; in the experiment with IGROV1 ovarian it was 3.45 µM.
For `N#C/C(C(=O)Nc1ccc(Cl)cc1)=C(/N)N1CCCC1`, the TGI in the experiment on OVCAR-8 ovarian, in the experiment with SNB-19 CNS, in the experiment on SW-620 colon, with LOX IMVI melanoma, in the experiment with RPMI-8226 leukemia and in the experiment on MDA-N was > 100 µM each time. Further, the TGI in the experiment with IGROV1 ovarian and with HL-60(TB) leukemia was > 100 µM in each case.
For `Cc1cc2c(O)c(c1)CN(CC(=O)O)Cc1cc(C)cc(c1O)CN(CC(=O)O)Cc1cc(C)cc(c1O)CN(CC(=O)O)C2`, the TGI in the experiment on OVCAR-8 ovarian, with SNB-19 CNS, in the experiment on RXF 393 renal, in the experiment on SW-620 colon, in the experiment on NCI-H522 lung and in the experiment with LOX IMVI melanoma was > 100 µM each time. Also, the TGI in the experiment with RPMI-8226 leukemia and in the experiment on MDA-N was > 100 µM each time.
As to `O=C1N=C2SC(=S)NC(=S)N2NC12c1ccccc1-c1ccccc12`, the TGI in the experiment with OVCAR-8 ovarian, in the experiment on SW-620 colon, in the experiment with LOX IMVI melanoma, in the experiment with RPMI-8226 leukemia, in the experiment with MDA-N and in the experiment with IGROV1 ovarian was > 10 µM in each case. Moreover, in the experiment with HL-60(TB) leukemia, the concentration for total growth inhibition (TGI) was > 10 µM.
`CCOC(=O)c1s/c(=N\Nc2nc3ccccc3cc2C2OCCO2)n(Cc2ccccc2)c1C`: the total growth inhibition concentration (TGI) with OVCAR-8 ovarian, with SNB-19 CNS, in the experiment on RXF 393 renal, in the experiment on SW-620 colon, with NCI-H522 lung and in the experiment on LOX IMVI melanoma was > 100 µM in each case. The TGI in the experiment on RPMI-8226 leukemia, in the experiment on IGROV1 ovarian and in the experiment with HL-60(TB) leukemia was > 100 µM in each case.
For `C/C(Cl)=N\OC(=O)Nc1ccc(C)cc1`, the total growth inhibition concentration (TGI) with OVCAR-8 ovarian is 32.4 µM; with SNB-19 CNS, > 100 µM; with SW-620 colon it was 33 µM; in the experiment with LOX IMVI melanoma it was 43.7 µM; in the experiment with MDA-N it was 29.9 µM; with IGROV1 ovarian it was 32.5 µM.
Consider `CC(C)N1CC2CC(CN(C(=O)c3ccccc3)C2)C1`, for which the TGI in the experiment on OVCAR-8 ovarian, in the experiment on SNB-19 CNS, with RXF 393 renal, in the experiment on SW-620 colon, in the experiment with NCI-H522 lung and in the experiment on LOX IMVI melanoma was > 100 µM in each case. Besides, the TGI with RPMI-8226 leukemia, with IGROV1 ovarian and in the experiment with HL-60(TB) leukemia was > 100 µM each time.
Consider `CSc1nc(NC(C)C)c2c(n1)Sc1nc3ccccc3n1N=C2`, for which the TGI in the experiment on OVCAR-8 ovarian was 28.8 µM; in the experiment on SNB-19 CNS it was 39 µM; in the experiment on SW-620 colon it was 35.3 µM; in the experiment with NCI-H522 lung it was 50.5 µM; with LOX IMVI melanoma it was > 100 µM; with RPMI-8226 leukemia, > 100 µM. For the same molecule, the TGI with MDA-N, in the experiment with IGROV1 ovarian and in the experiment with HL-60(TB) leukemia was > 100 µM throughout.
With `CN(C)CCNC(=O)c1cc(Cl)cc2ccc(-c3ccccc3)nc12`, the TGI worked out at 13.2 µM in the experiment with OVCAR-8 ovarian; 18.8 µM with SNB-19 CNS; 14.3 µM with RXF 393 renal; 13.4 µM in the experiment with SW-620 colon; 16 µM with NCI-H522 lung; 6.7 µM in the experiment on LOX IMVI melanoma. Moreover, the TGI came out at 5.32 µM in the experiment with RPMI-8226 leukemia, 14.2 µM with IGROV1 ovarian and 4.88 µM in the experiment on HL-60(TB) leukemia.
For `c1cncc(CC2(c3cc4ccccc4[nH]3)OCCO2)c1`, the TGI in the experiment with OVCAR-8 ovarian, with SNB-19 CNS, with SW-620 colon, with NCI-H522 lung, in the experiment with LOX IMVI melanoma and in the experiment on MDA-N was > 100 µM throughout. Moreover, the TGI with IGROV1 ovarian and in the experiment with HL-60(TB) leukemia was > 100 µM each time.
As for `CC1=NN(c2nc(N)nc(-c3sccc3N)n2)C(C)(C)C1`, the TGI was > 100 µM in the experiment on OVCAR-8 ovarian; > 100 µM with SNB-19 CNS; > 100 µM in the experiment with SW-620 colon; > 100 µM in the experiment with NCI-H522 lung; > 100 µM in the experiment with LOX IMVI melanoma; 70.9 µM with RPMI-8226 leukemia. For the same molecule, the TGI with MDA-N, in the experiment with IGROV1 ovarian and in the experiment with HL-60(TB) leukemia was > 100 µM throughout.
